# Like-named read-outs stand apart in the source and are kept apart here.
# Tests used:
# [1] = target: T1, human mu opioid receptor (Homo sapiens, UniProt P35372); assay: Human Mu Opioid Receptor Binding Assay (CHO membranes, 3H-Damgo); conditions: read-out: hKi μ
# T1 construct: purchased Perkin Elmer RBHOMM400UA; host or cells: Chinese Hamster Ovary cells (recombinant expression)
# Procedure, shortened: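 Membranes from CHO cells expressing human mu opioid receptor, 300 μg/mL, in 50 mM Tris pH 7.5, 5 mM MgCl2. Incubated with compound and ³H-Damgo (3.6 nM before mixing) for 2 h at room temperature, filtered, counted by scintillation. Nonspecific binding with 1 μM unlabelled Damgo.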
# [2] = target: T2, delta opioid receptor (NG108-15 cell membranes) (Mus musculus, UniProt P32300); assay: Delta Opioid Receptor Functional Assay: [35S]GTPγS Binding in NG108-15 Cell Membranes, Version 2; type: biochemical; conditions: NG108-15 cell membranes, version 2; for EC50: [35S]GTPγS, read-out: DOR GTP-binding Assay_v2_ EC50; for DOR GTP-binding Assay v2 (% I): % inhibition of agonist-stimulated GTPγS binding
# T2 construct: NG108-15 cell membranes were purchased from Applied Cell Sciences (Rockville, Md.); host or cells: NG108-15 cells (membranes purchased)
# T2 sequence (P32300 whole entry): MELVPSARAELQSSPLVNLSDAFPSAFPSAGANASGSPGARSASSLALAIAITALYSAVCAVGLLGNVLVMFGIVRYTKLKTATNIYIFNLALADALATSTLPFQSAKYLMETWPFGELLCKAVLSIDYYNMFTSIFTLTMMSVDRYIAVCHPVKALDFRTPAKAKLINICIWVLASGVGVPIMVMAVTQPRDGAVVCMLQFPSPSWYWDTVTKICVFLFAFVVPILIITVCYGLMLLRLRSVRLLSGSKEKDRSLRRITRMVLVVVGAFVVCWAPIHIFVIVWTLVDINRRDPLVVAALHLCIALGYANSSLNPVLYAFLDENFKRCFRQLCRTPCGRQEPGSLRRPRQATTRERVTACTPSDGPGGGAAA
# Protocol: NG108-15 cell membranes were purchased from Applied Cell Sciences (Rockville, Md.). 8 mg/ml of membrane protein suspended in 10 mM TRIS-HC pH 7.2, 2 mM EDTA, 10% sucrose.
# Membranes were maintained at 4-8° C. A portion (1 ml) of membranes was added into 10 ml cold binding assay buffer. The assay buffer contained 50 mM Tris, pH 7.6, 5 mM MgCl2, 100 mM NaCl, 1 mM DTT and 1 mM EGTA. The membrane suspension was homogenized with a Polytron for 2 times and centrifuged at 3000 rpm for 10 min. The supernent was then centrifuged at 18,000 rpm for 20 min. The pellet was saved in a tube and 10 ml assay buffer was added into the tube. The pellet and buffer were mixed with a Polytron.
# The pellet membranes (75 μg/ml) were preincubated with SPA (10 mg/ml) at 25° C. for 45 min in the assay buffer. The SPA (5 mg/ml) coupled with membranes (37.5 μg/ml) was then incubated with 0.1 nM [^35S] GTPγS in the same Tris buffer containing 100 μM GDP in total volume of 200 μl. Increasing concentrations of receptor agonists were used to stimulate [^35S] GTPγS binding. The basal binding was tested in the absent agonists and no specific binding was tested in the present 10 μM unlabeled GTPγS. The data were analyzed on a Top counter.
# [formula] % Inhibition=(% stimulation by 1 μM SNC80−% stimulation by 1 μM SNC80 in presence of test compound)×100/(% Stimulation by 1 μM SNC80−100) % of Basal=(stimulate−non specific)*100/(basal−non specific). EC50 values were calculated using GraphPad Prism.
# [3] = target: T3, human delta subtype 2 opioid receptor (Homo sapiens, UniProt P41143); assay: Human Delta Opioid Receptor Binding Assay (CHO membranes, 3H-Naltrindole); conditions: read-out: hKi δ
# T3 construct: purchased Perkin Elmer RBHODM400UA; host or cells: Chinese Hamster Ovary cells (recombinant expression)
# T3 sequence (P41143 whole entry): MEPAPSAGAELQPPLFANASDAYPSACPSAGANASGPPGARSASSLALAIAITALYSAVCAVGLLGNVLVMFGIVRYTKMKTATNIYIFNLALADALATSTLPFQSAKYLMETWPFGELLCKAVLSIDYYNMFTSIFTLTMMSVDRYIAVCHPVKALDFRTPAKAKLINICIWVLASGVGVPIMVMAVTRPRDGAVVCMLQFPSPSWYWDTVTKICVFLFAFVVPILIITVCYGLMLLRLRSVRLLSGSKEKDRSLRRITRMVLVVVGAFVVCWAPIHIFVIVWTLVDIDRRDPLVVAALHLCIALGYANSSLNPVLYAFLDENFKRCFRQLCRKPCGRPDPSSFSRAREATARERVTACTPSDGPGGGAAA
# Procedure, shortened: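 Filtration binding on CHO-cell membranes expressing the human receptor, in 50 mM Tris pH 7.5 with 5 mM MgCl2, 30 min at room temperature; 3H-naltrindole diluted to 6 nM before mixing 1:1 with compound. Nonspecific binding defined with 1 μM unlabelled naltrindole; inhibition relative to no-inhibitor wells.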
# [4] = target: T4, mu opioid receptor (CHO-hMOR cell membranes) (Homo sapiens, UniProt P35372); assay: Mu Opioid Receptor Functional Assay: [35S]GTPγS Binding in CHO-hMOR Cell Membranes, Versions 1 and 2; type: biochemical; conditions: for MOR GTP binding assay_v2 (% I): version 2, % inhibition of agonist-stimulated GTPγS binding; for EC50: version 2, read-out: MOR GTP binding assay v2 EC50; for MOR GTP binding assay_v1 (% I): version 1, % inhibition of agonist-stimulated GTPγS binding
# T4 construct: purchased Receptor Biology, Inc. (Baltimore, Md.); host or cells: CHO cells (recombinant expression)
# T4 sequence (P35372 whole entry): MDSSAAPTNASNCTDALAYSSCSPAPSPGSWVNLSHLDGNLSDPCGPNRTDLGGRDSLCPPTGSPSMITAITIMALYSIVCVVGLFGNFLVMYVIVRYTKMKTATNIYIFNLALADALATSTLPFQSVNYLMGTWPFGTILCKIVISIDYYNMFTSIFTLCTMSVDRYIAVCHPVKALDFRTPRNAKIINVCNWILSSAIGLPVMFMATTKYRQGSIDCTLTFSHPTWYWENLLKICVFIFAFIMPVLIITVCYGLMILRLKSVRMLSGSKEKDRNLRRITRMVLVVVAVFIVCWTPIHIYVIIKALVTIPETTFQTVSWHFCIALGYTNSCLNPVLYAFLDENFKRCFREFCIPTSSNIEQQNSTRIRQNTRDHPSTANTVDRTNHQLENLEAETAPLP
# Procedure, shortened: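 CHO-hMOR membranes (10 μg/ml) on WGA SPA beads, preincubated 45 min at 25 °C, then incubated with 0.5 nM [35S]GTPγS in HEPES pH 7.6, 5 mM MgCl2, 100 mM NaCl, 1 mM DTT, 1 mM EDTA. Non-specific binding with 10 μM unlabeled GTPγS; agonist EC50 from concentration-response, antagonism as inhibition of 1 μM SNC80-stimulated binding.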
# [5] = target: T5, mu opioid receptor (Rattus norvegicus, UniProt P33535); assay: Rat Brain Mu Opioid Receptor Binding Assay (and Version 2a, [3H]DAMGO); conditions: rat forebrain membranes, margin of error 10-20%, read-out: r Ki μ
# T5 construct: from tissue; host or cells: forebrain of male Wistar rats
# T5 sequence (P33535 whole entry): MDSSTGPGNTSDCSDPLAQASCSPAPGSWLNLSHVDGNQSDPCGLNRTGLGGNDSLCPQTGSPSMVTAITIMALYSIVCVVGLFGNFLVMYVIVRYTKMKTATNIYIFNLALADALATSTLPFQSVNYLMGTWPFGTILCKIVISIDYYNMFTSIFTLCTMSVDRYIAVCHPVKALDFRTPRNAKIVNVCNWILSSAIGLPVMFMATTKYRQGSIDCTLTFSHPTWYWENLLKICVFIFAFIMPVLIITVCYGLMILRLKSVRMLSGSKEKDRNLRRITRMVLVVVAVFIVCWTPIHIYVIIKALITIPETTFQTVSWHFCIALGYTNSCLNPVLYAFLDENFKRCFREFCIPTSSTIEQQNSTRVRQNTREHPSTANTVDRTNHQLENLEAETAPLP
# Protocol: Male, Wistar rats (150-250 g, VAF, Charles River, Kingston, N.Y.) are killed by cervical dislocation, and their brains removed and placed immediately in ice cold Tris HCl buffer (50 mM, pH 7.4). The forebrains are separated from the remainder of the brain by a coronal transection, beginning dorsally at the colliculi and passing ventrally through the midbrain-pontine junction. After dissection, the forebrains are homogenized in Tris buffer in a Teflon® glass homogenizer. The homogenate is diluted to a concentration of 1 g of forebrain tissue per 80 mL Tris and centrifuged at 39,000×g for 10 min. The pellet is resuspended in the same volume of Tris buffer containing 5 mM MgCl2 with several brief pulses from a Polytron homogenizer. This particulate preparation is used for the mu-opioid binding assays. […] The filters are rinsed three times with 2 mL of 10 mM HEPES (pH7.4), and dried in a microwave oven 2 min twice. To each sample area 2×50 μL of Betaplate Scint scintillation fluid (LKB) is added and analyzed on a LKB (Wallac) 1205 BetaPlate liquid scintillation counter.
# (§1) The data are used to calculate either the % inhibition compared to control binding (when only a single concentration of test compound is evaluated) or a Ki value (when a range of concentrations is tested). % inhibition is calculated as: [(total dpm-test compound dpm)/(total dpm-nonspecific dpm)]*100. Kd and Ki values were calculated using GraphPad PRISM data analysis program.
# Male, Wistar rats (150-250 g, VAF, Charles River, Kingston, N.Y.) were killed by cervical dislocation, and their brains removed and placed immediately in ice-cold Tris HCl buffer (50 mM, pH 7.4). The forebrains were separated from the remainder of the brain by a coronal transection, beginning dorsally at the colliculi and passing ventrally through the midbrain-pontine junction. After dissection, the forebrains were homogenized in Tris buffer in a Teflon®-glass homogenizer. The homogenate was diluted to a concentration of 1 g of forebrain tissue per 80 mL Tris and centrifuged at 39,000×g for 10 min. The pellet was resuspended in the same volume of Tris buffer containing 5 mM MgCl2 with several brief pulses from a Polytron homogenizer. This particulate preparation was used for the mu opioid binding assay. Following incubation with 0.8 nM of the mu selective ligand [^3H]DAMGO at 25° C. for 2.5 h in a 96-well plate with total 1 mL, the plate contents were filtered through Wallac filtermat B sheets on a Tomtec 96-well harvester. The filters were rinsed three times with 2 mL of 10 mM HEPES (pH 7.4), and dried in a microwave oven. To each sample area, Betaplate Scint scintillation fluid (LKB) was added and the resulting radioactivity quantified on a LKB (Wallac) 1205 BetaPlate liquid scintillation counter. Kd and Ki values were calculated using the GraphPad PRISM data analysis program.
# [6] = target: T6, delta opioid receptor (Rattus norvegicus, UniProt P33533); assay: Rat Brain Delta Opioid Receptor Binding Assay ([3H]DPDPE); conditions: rat forebrain membranes, margin of error 10-20%, read-out: r Ki δ
# T6 construct: from tissue; host or cells: forebrain of male Wistar rats
# T6 sequence (P33533 whole entry): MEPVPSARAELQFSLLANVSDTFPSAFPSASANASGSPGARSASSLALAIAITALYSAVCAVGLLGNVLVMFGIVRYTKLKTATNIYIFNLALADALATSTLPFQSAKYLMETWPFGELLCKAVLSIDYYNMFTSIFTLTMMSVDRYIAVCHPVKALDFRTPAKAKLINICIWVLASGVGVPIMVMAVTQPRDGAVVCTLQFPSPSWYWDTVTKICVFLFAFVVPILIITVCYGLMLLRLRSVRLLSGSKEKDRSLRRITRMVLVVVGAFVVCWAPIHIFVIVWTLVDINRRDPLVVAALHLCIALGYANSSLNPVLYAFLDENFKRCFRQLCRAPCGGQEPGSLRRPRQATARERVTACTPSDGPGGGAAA
# Protocol: Male, Wistar rats (150-250 g, VAF, Charles River, Kingston, N.Y.) are killed by cervical dislocation, and their brains removed and placed immediately in ice cold Tris HCl buffer (50 mM, pH 7.4). The forebrains are separated from the remainder of the brain by a coronal transection, beginning dorsally at the colliculi and passing ventrally through the midbrain-pontine junction. After dissection, the forebrains are homogenized in Tris buffer in a Teflon® glass homogenizer. The homogenate is diluted to a concentration of 1 g of forebrain tissue per 80 mL Tris and centrifuged at 39,000×g for 10 min. The pellet is resuspended in the same volume of Tris buffer containing 5 mM MgCl2 with several brief pulses from a Polytron homogenizer. This particulate preparation is used for the delta opioid binding assays. Following incubation with the delta selective peptide ligand ˜4 nM [^3H]DPDPE at 25° C. for 2.5 h in a 96-well plate with total volume of 1 mL, the plate contents are filtered through Wallac filtermat B sheets on a Tomtec 96-well harvester. The filters are rinsed three times with 2 mL of 10 mM HEPES (pH 7.4), and dried in a microwave oven 2 min twice. To each sample area 2×50 μL of Betaplate Scint scintillation fluid (LKB) is added and analyzed on a LKB (Wallac) 1205 BetaPlate liquid scintillation counter.
# as §1, with “dpm−test” for “dpm-test”, “dpm−nonspecific” for “dpm-nonspecific”
# [7] = test system: novel environment-stressed mice; assay: In Vivo Assay-Stress-Induced Fecal Output (Fecal Output for 1 hr); parameters: species or system mouse; conditions: 30 mg/kg oral, 1 hr; for response vs control in vivo at 30 mg/kg: Mus musculus, po, 1 h
# Excerpt: This assay evaluates the fecal output in novel environment-stressed mice to that of acclimated controls.
# Methods: Adult, male, Crl:CD-1(ICR) mice, weighing ˜30-35 g were used in these studies, with a minimum of 10 mice per dose group. One group of mice was assigned as acclimated, or “non-stressed” controls. These control mice were transported from colony housing, where they were housed 3/cage in polycarbonate cages with access to food and water ad lib. to the procedure room. The mice were removed from their home cages and individually housed in 20 cm wide×20 cm deep×15 cm tall cages, equipped with a wire mesh bottom where they remained for a 16-18 hr period of acclimation to their novel environment. Mice were allowed access to food and water ad lib. during acclimation. The other groups of mice were assigned as non-acclimated, or “stressed” treatment groups. Each mouse in each group was weighed and vehicle, or test compound, was intragastrically administered by oral intubation in 0.5% methylcellulose. Mice were allowed access to water only ad lib. during the test period. After compound administrations, acclimated (control) as well as non-acclimated (stressed) mice were individually housed in a 20 cm wide×20 cm deep×15 cm tall cage, with a wire mesh bottom. An absorbant cardboard is placed beneath the cages. The number of fecal pellets excreted by each mouse was determined at hourly intervals following placement of the mice in the individual cages. Raw Data=# of fecal pellets/mouse/hr. […]
# T1 sequence (P35372 whole entry): as the sequence (P35372 whole entry) above
Structure (SMILES),EC50 [2],DOR GTP-binding Assay v2 (% I) [2],Ki [3],MOR GTP binding assay_v2 (% I) [4],EC50 [4],Ki [5],Ki [6],also measured
COC(=O)c1ccc(CN(C(=O)[C@@H](N)Cc2c(C)cc(C(N)=O)cc2C)[C@@H](C)c2nc(-c3ccccc3)c[nH]2)cc1 [Cpd 51],27 nM,66.04%,113 nM,,,,,Ki [1]: 2.7 nM
COC(=O)c1ccc(CN(C(=O)[C@@H](N)Cc2c(C)cc(C(N)=O)cc2C)[C@@H](C)c2nc(-c3ccccc3)c[nH]2)cn1 [Cpd 255],13.1 nM,54.00%,,33.00%,3.48 nM,,,
COC(=O)c1cccc(CN(C(=O)[C@@H](N)Cc2c(C)cc(C(N)=O)cc2C)[C@@H](C)c2nc(-c3ccccc3)c[nH]2)n1 [Cpd 313],5.03 nM,49%,,29.00%,50.6 nM,,,
COC(=O)c1cc(CN(C(=O)[C@@H](N)Cc2c(C)cc(C(N)=O)cc2C)[C@@H](C)c2nc(-c3ccccc3)c[nH]2)ccn1 [Cpd 311],1.02 nM,41.00%,,,,,,
COc1ccc(CN(C(=O)[C@@H](N)Cc2c(C)cc(C(N)=O)cc2C)[C@@H](C)c2nc(-c3cccc(C(=O)O)c3)c[nH]2)cc1OC [Cpd 20],> 10000 nM,78.74%,,,,,,Ki [1]: 63 nM
CN(Cc1nc(-c2ccccc2)c[nH]1)C(=O)[C@@H](N)Cc1ccc(O)cc1 [Cpd 198],,,> 10000 nM,,,152 nM,5180 nM,Ki [1]: 140 nM
Cc1cc(C(N)=O)cc(C)c1C[C@H](N)C(=O)N(Cc1nc(-c2ccccc2)c[nH]1)C(C)C [Cpd 178],,,,,,0.6 nM,104 nM,"MOR GTP binding assay_v1 (% I) [4]: 10.00%; Fecal Output (# pellets) cpd ([7]; novel environment-stressed mice): 5.5 pellets; response vs control in vivo at 30 mg/kg ([7]; relative to acclimated control, read-out: Fecal Output cpd % control): 172%; response vs control in vivo at 30 mg/kg ([7]; relative to novel environment stress (NES) vehicle group, read-out: Fecal Output cpd % NES): 62.5%"
N[C@@H](Cc1ccc(O)cc1)C(=O)N(Cc1nc(-c2ccccc2)c[nH]1)CC1CC1 [Cpd 193],,,> 10000 nM,,,21.1 nM,182 nM,"MOR GTP binding assay_v1 (% I) [4]: 54.00%; MOR GTP assay_v1 % of Basal ([4]; version 1, basal binding = 100%): 182.00%"
Cc1cc(C(N)=O)cc(C)c1C[C@H](N)C(=O)N(Cc1ccc(C(=O)O)cn1)[C@@H](C)c1nc(-c2ccccc2)c[nH]1 [Cpd 253],1.35 nM,52.00%,,28.00%,251 nM,,,
COC(=O)c1ccc(CN(C(=O)[C@@H](N)Cc2c(C)cc(C(N)=O)cc2C)[C@@H](C)c2nc(-c3ccccc3)c[nH]2)nc1 [Cpd 252],32.1 nM,66.00%,,24.00%,4.15 nM,,,
N[C@@H](Cc1ccc(O)cc1)C(=O)N(Cc1nc(-c2ccccc2)c[nH]1)C1CCCCC1 [Cpd 191],,,> 10000 nM,,,189 nM,727 nM,
Cc1cc(C(N)=O)cc(C)c1C[C@H](N)C(=O)N(Cc1ccc(C(=O)O)nc1)[C@@H](C)c1nc(-c2ccccc2)c[nH]1 [Cpd 254],6.27 nM,62.00%,,42.00%,316 nM,,,
